Reference: PubChem BioAssay AID489022 (Sanford-Burnham Center for Chemical Genomics, 2010)
Calls of active or inactive are those of the source. How the calls were made is not given here.

Test system: HEK-293T NF-kB luciferase reporter, luminescence counterscreen
Experiment: inhibitors of NF-kB luciferase reporter, HEK-293T, dose response, counter-screen for BCR NF-kB inhibitor project, luminescence, B-cell screen hits (AID 489022)

SMILES | IC50
CC(=C/c1ccco1)/C=N/NC(=O)CSc1nnc(SCc2ccc(C)cc2)s1 | > 80 µM (inactive)
CCOc1ccc(NC(=O)CCCc2cc(-c3ccc(OCC)cc3)on2)cc1 | > 80 µM (inactive)
COc1ccc(N(CC(=O)N2CCN(c3ccc(Cl)cc3)CC2)S(=O)(=O)c2c(C)n[nH]c2C)cc1 | 15.3 µM
COc1ccc(C(=O)Nc2cccc(NC(=O)c3ccc(OC)c(OC)c3)n2)cc1OC | 15.4 µM
COCCCNC(=O)COc1ccc(-c2nccc(-c3ccccn3)n2)cc1 | 48.1 µM (inactive)
CCCOc1ccc(NC(=O)C(=O)NCCCn2ccnc2)cc1 | > 80 µM (inactive)
Cc1ccc(C(=O)C[n+]2cc(-c3ccc(C)cc3)n3c2CCCCC3)cc1 | 4.44 µM
CCOC(=O)C(=CNc1cc(C)ccc1C)C(=O)OCC | 18.9 µM
COc1cc(C(=O)Nc2cc(C)c(OCC(=O)N3CCOCC3)c(C)c2)cc(OC)c1OC | > 80 µM (inactive)
CC(C)N1C(=O)S/C(=C/c2ccc3c(c2)n(C)c(=O)n3C)C1=O | > 80 µM (inactive)
CC1Cc2ccccc2N1S(=O)(=O)c1cnc(Cl)c(Cl)c1 (stereo unspecified) | 77.8 µM (inactive)
COc1ccc(/C=C/c2ccccc2)cc1[C@H]1[C@H]2C=CC[C@@H](C)[C@@H]2C(=O)N1Cc1ccccc1 | > 80 µM (inactive)
Cc1ccccc1-n1c(SCc2c(C)noc2C)nnc1-c1c[nH]c2ccccc12 | 33.8 µM (inactive)
Cc1ccc(C(=O)OCC(=O)N(CC(C)C)c2c(N)n(Cc3ccccc3)c(=O)[nH]c2=O)o1 | > 80 µM (inactive)
O=C(NCCCN1CCOCC1)c1cc(-c2ccc(Br)cc2)on1 | 43.7 µM (inactive)
O=C(CCCN1C(=O)/C(=C/c2ccccc2Cl)SC1=S)NNC(=O)c1ccc(Cl)cc1 | > 80 µM (inactive)
COc1ccc(/C=N\NC(=O)c2sccc2C)cc1Cn1nc(C)cc1C | 25.4 µM (inactive)
CCc1ccc(-c2nc(CSCC(=O)NC3CC3)c(C)o2)cc1 | 30.5 µM (inactive)
COc1cc(OC)c(/C=N/NC(N)=S)cc1Br | > 80 µM (inactive)
COc1cc(NC(=O)c2cc3c(C)nc4ccccc4c3o2)cc(OC)c1OC | 18.4 µM
CCOC(=O)C1CCN(c2ncnc3c2cnn3-c2ccc(OC)cc2)CC1 | 18.4 µM
Cc1ccc(C(=O)CSc2nnc(COc3cc(C)cc(C)c3)o2)cc1 | 24.9 µM (inactive)
Cc1ccc(Nc2nc(N/N=C\c3ccc4c(c3)OCO4)nc(N3CCOCC3)n2)cc1 | > 80 µM (inactive)
COc1ccc(NS(=O)(=O)c2ccc(-c3coc(C)n3)cc2)cc1OC | 0.66 µM

SMILES | IC50
COc1ccc2nc(C)cc(Sc3nc4ccccc4s3)c2c1 | 11.2 µM
CCN(CC)CCOC(=O)c1ccc(NC(=O)CCCN2C(=O)S/C(=C/c3ccc(OC)cc3)C2=S)cc1 | 11.6 µM
Cc1ccc(Nc2nc(N3CCOCC3)nc(N3CCOCC3)n2)cc1C | 51.4 µM (inactive)
Cc1[nH]c2ccccc2c1/C=N/Nc1nc(Nc2ccc(F)cc2)nc(N2CCOCC2)n1 | > 80 µM (inactive)
CC(C)(C)c1ccc(-c2noc(CCC(=O)NCC3CCCO3)n2)cc1 (stereo unspecified) | 1.22 µM
CC(=O)c1cn(CCOc2cc(C)ccc2C)c2ccccc12 | 0.29 µM
CC(C)Cn1c([N+](=O)[O-])nc2c1c(=O)[nH]c(=O)n2C | 37 µM (inactive)
C=CCOc1ccc(NC(=O)C(=O)NCCCn2ccnc2)cc1 | > 80 µM (inactive)
Nc1ccccc1SCC(=O)Nc1nc(-c2ccccc2)cs1 | 11.8 µM
COc1ccc(/C=C2/SC(=S)N(CCCC(=O)Nc3cccc(O)c3)C2=O)cc1 | 27.5 µM (inactive)
O=C(Nc1ccc(NC(=O)c2cc3ccccc3o2)cc1)c1ccc2c(c1)OCCO2 | > 80 µM (inactive)
Cn1c(=O)c2c(SCC(=O)Nc3ccccc3F)nc(-c3ccccc3F)nc2n(C)c1=O | > 80 µM (inactive)
COCCCn1c(=O)/c(=C\c2cccc(OC)c2OC)s/c1=C(/C#N)C(=O)Nc1ccc(C(=O)O)cc1 | 34.1 µM (inactive)
Cc1ccc(Sc2cc(NCCCO)c([N+](=O)[O-])c3nonc23)cc1 | > 80 µM (inactive)
CCn1c(=O)cc(SCC(=O)N2CCOCC2)c2ccccc21 | > 80 µM (inactive)
CCN1C(=O)Nc2cccc3cccc1c23 | 17.8 µM
CCN1C(=O)c2cccc3c(S(=O)(=O)Nc4ccccc4)ccc1c23 | 18.7 µM
Cc1cc(OCC(=O)Nc2ccc(CCO)cc2)c2c(C)c(C)c(=O)oc2c1 | > 80 µM (inactive)
COc1ccc(-c2ccc(OC)c([C@H]3[C@H]4C=CC[C@@H](C)[C@@H]4C(=O)N3Cc3ccccc3)c2)cc1 | 55.5 µM (inactive)
COc1ccc(OC)c(NC(=O)c2[nH]c(C)c(C(C)=O)c2C)c1 | > 80 µM (inactive)
COc1ccc(-c2noc(N3CCC(C(=O)Nc4ccc(F)cc4F)CC3)n2)cc1 | > 80 µM (inactive)
Cn1c(=O)cc(OCCCC(=O)NCc2ccccn2)c2ccccc21 | > 80 µM (inactive)
CNC(=O)CSc1nc2nn(-c3ccccc3)c(=O)c-2c2n1CCCCC2 | > 80 µM (inactive)
COc1ccc(/C=C2\SC(=O)N(CCCC(=O)Nc3ccc(C(=O)O)cc3)C2=O)cc1OC | > 80 µM (inactive)

SMILES | IC50
CCCCCCn1c(-c2ccco2)nc2oc3cc(OC)ccc3c(=O)c2c1=O | > 80 µM (inactive)
COc1ccc(-c2noc(N3CCC(C(=O)Nc4cccc(OC)c4)CC3)n2)cc1 | 17.9 µM
Cc1nc2cc(-c3ccccc3)nn2c(C)c1CCC(=O)NCc1ccco1 | > 80 µM (inactive)
COc1ccc(OC)c(C2CC(=O)Nc3cc(OC)c(OC)c(OC)c32)c1 (stereo unspecified) | > 80 µM (inactive)
CCN(CC(=O)Nc1c(F)cccc1F)C(=O)c1cc(S(=O)(=O)N2CCOCC2)ccc1N1CCCC1 | > 80 µM (inactive)
COc1ccc(/C=C2\SC(=S)N(CCC(=O)Nc3cccc(O)c3)C2=O)cc1 | > 80 µM (inactive)
Cc1c(CCC(=O)N2CCC(C(=O)O)(c3ccccc3)CC2)c(=O)oc2cc3oc4c(c3cc12)CCCC4 | 21.6 µM (inactive)
Cc1c(CCC(=O)NCCCn2ccnc2)c(=O)oc2c(C)c3oc4c(c3cc12)CCCC4 | 6.65 µM
N=c1c(C(=O)NC2CCCC2)cc2c(=O)n3ccccc3nc2n1CCN1CCOCC1 | > 80 µM (inactive)
CN(CC1CCCO1)S(=O)(=O)c1ccc(C(=O)Nc2nc3cc4c(cc3s2)OCO4)cc1 (stereo unspecified) | 0.36 µM
CCN1C(=O)c2cccc3c(S(=O)(=O)N4CCC(C)CC4)ccc1c23 | 17.5 µM
N=c1ccn2c(n1)O[C@H]1[C@H](O)[C@@H](CO)O[C@H]12 | > 80 µM (inactive)
CSc1ccc(-c2nc(CSCC(=O)NC3CC3)c(C)o2)cc1 | 37.7 µM (inactive)
O=C(O)COc1ccc(-c2nccc(-c3ccccn3)n2)cc1 | 13.3 µM
Cn1nc(-c2ccc(Cl)cc2)c2cc(C(=O)N3CCCC3)sc21 | 3.75 µM
Cc1csc(NC(=O)CCc2c(C)nc3cc(-c4ccc(Cl)cc4)nn3c2C)n1 | 10.2 µM
Cc1c(CCC(=O)O)c(=O)oc2cc3oc4c(c3cc12)CCCC4 | 5.89 µM
O=C(CCCN1C(=O)/C(=C/c2ccccc2Cl)SC1=S)Nc1ccccn1 | 23.7 µM (inactive)
O=C(CCCN1C(=O)/C(=C/c2ccccc2Cl)SC1=S)NNC(=O)c1ccccc1Cl | 20 µM
C(=N\Nc1nc(Nc2ccccc2)nc(N2CCOCC2)n1)/c1c[nH]c2ccccc12 | 53 µM (inactive)
COc1ccccc1/C=C1\SC(=S)N(CCC(=O)Nc2cc(C)on2)C1=O | > 80 µM (inactive)
COC(=O)C1=C(c2ccc(-c3ccccc3)c(F)c2)C[C@@H]2CC[C@H]1N2C(=O)N1CCCC1 | 1.83 µM
COc1cccc(-c2noc(CCC(=O)NCCc3ccccc3)n2)c1 | 75.4 µM (inactive)
Cc1ccc(-c2nc(C(=O)NCC3CCCO3)cc3c2[nH]c2ccccc23)cc1 (stereo unspecified) | 8.81 µM

SMILES | IC50
Cc1ccc(-c2nn3c(C)nnc3c3ccccc23)cc1S(=O)(=O)NCCN1CCOCC1 | 32 µM (inactive)
O=S(=O)(NCc1ccncc1)c1ccc(Br)s1 | 0.86 µM
COc1ccc(-c2ccc(N(C)C)cc2)cc1[C@H]1[C@H]2C=CC[C@@H](C)[C@@H]2C(=O)N1Cc1ccccc1 | > 80 µM (inactive)
CCOC(=O)N1CCN(CC(=O)Nc2ccc([N+](=O)[O-])cc2C(=O)Nc2ccccc2F)CC1 | 29.4 µM (inactive)
Cc1cc(C)c(CN2CCN(C(=O)Cn3cnc4c(NCc5ccccc5)ncnc43)CC2)c(C)c1 | 0.51 µM
O=C(Nc1cccc(Br)c1)c1ccc2c(c1)SC1=NS(=O)(=O)CCN12 | 10.5 µM
COc1cc2c3c(c1)c(N=NC(N)=S)c(O)n3C(C)(C)C=C2C | > 80 µM (inactive)
COc1ccc(/C=C2/SC(=S)N(CCC(=O)O)C2=O)cc1 | 24.3 µM (inactive)
Cc1ccccc1Nc1nc(Cl)c(C=O)s1 | > 80 µM (inactive)
C=CCn1c(O)c(C(C)=NC(C)c2ccccc2)c(=O)[nH]c1=O (stereo unspecified) | 60.2 µM (inactive)
CC(C)(O)/C=C/C(=O)[C@](C)(O)C1[C@H](O)C[C@@]2(C)C3CC=C4C(C[C@H](O)[C@@H](O)C4(C)C)[C@]3(C)C(=O)C[C@]12C (stereo partly specified) | 65.8 µM (inactive)
Cc1ccc(S(=O)(=O)N2CCCCC2CCNC(=O)C(=O)NCc2ccncc2)cc1 (stereo unspecified) | 38.4 µM (inactive)
CCc1ccc(-c2nnn(CCC(=O)OC)n2)cc1 | 0.6 µM
O=C(CCCN1C(=O)S/C(=C/C=C/c2ccccc2)C1=O)Nc1ccc(C(=O)O)cc1 | > 80 µM (inactive)
CCN(CC)c1ccc2cc(NC(=O)CCC(=O)O)c(=O)oc2c1 | 1.38 µM
Cc1nnc2c3ccccc3c(-c3ccccc3)nn12 | 61.4 µM (inactive)
CN1C(=O)CSc2ccc(NC(=O)N3CCN(c4ccccc4)CC3)cc21 | 50.5 µM (inactive)
O=C(c1cc2nc(-c3ccccc3)cc(-c3ccccc3)n2n1)N1CCN(C(=O)c2ccco2)CC1 | 11 µM
C=CCn1c(O)c(C(CC)=NC(C)c2ccccc2)c(=O)[nH]c1=O (stereo unspecified) | 25 µM (inactive)
O=C(CCCN1C(=O)/C(=C/c2ccccc2Cl)SC1=S)NNC(=O)c1ccccc1 | 21.8 µM (inactive)
N#Cc1ccccc1COc1ccc(/C=C/C(=O)O)cc1 | 6.03 µM
CCCCCOc1ccc(NC(=O)C(=O)NCCCn2ccnc2)cc1 | 42.8 µM (inactive)
COc1ccc(/C=C2\SC(=S)N(CCC(=O)Nc3ccc(O)cc3)C2=O)cc1 | > 80 µM (inactive)
Cc1ccc(/C=C2\SC(=S)N(CCCC(=O)NC3CCCC3)C2=O)cc1 | > 80 µM (inactive)
